Test results reported in patent publication US11945796B2, “Substituted pyridine derivatives as SARM1 inhibitors” (Nura Bio, Inc., priority 2020, dated 2024).
Where two headings read alike, the source gives them in different places.

Biological target: T1, human SARM1(50-724) (Homo sapiens, UniProt Q6SZW1)
T1 construct: 40 nM human SARM1(50-724)
T1 sequence (Q6SZW1 50-724): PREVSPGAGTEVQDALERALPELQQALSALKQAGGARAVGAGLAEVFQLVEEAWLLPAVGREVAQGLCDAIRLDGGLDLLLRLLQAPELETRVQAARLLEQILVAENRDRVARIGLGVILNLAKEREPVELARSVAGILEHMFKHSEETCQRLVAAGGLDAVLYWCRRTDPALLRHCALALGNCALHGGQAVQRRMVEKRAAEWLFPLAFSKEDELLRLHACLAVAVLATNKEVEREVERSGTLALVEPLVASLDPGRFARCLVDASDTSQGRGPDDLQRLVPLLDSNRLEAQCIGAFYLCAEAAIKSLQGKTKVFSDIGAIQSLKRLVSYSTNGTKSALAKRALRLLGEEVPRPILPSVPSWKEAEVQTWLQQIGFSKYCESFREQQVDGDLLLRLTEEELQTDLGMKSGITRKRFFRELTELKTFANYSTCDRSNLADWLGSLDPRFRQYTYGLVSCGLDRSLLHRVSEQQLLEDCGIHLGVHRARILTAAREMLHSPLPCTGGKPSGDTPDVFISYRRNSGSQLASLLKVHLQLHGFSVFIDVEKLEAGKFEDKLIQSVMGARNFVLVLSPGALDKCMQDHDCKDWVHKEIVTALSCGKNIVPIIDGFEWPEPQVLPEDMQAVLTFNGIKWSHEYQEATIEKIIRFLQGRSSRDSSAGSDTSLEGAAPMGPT
Test: SARM1 NADase biochemical assay (HPLC peak areas of NAD and NAM)
Details: for IC50: dose-response, 1:3 serial dilution from 100 μM, 40 nM SARM1, 0.3 mM NMN, 20 μM NAD, 60 min rt
Method: The reaction was incubated at room temperature for 60 minutes and quenched with 20 μL of 0.4% formic acid. […] Total run time for each sample was 4 minutes. […] Samples were run at a flow rate of 0.8 mL/min at 55° C. Peak areas of NAD and NAM were determined using OpenLAB CDS (Chem Station edition) software. For dose-response, the compound was diluted serially 1:3 in DMSO and added to the reaction starting at a final compound concentration of 100 μM in 1% DMSO.

[1] = 50 μM compound, NAD peak area, read-out: Avg NAD % inhibition at 50 μM
[2] = 50 μM compound, NAM peak area, read-out: Avg NAM % inhibition at 50 μM
[3] = read-out: Avg NAD % inhibition at 50 μM
[4] = read-out: Avg NAM % inhibition at 50 μM

| Compound | inhibition at 50 µM [1] [%] | inhibition at 50 µM [2] [%] | IC50 [µM] | further results |
| --- | --- | --- | --- | --- |
| COc1cccc(C(=O)Nc2ccn(Cc3ccncc3)n2)c1 [Example 43, 3-Methoxy-N-(1-(pyridin-4-ylmethyl)-1H-pyrazol-3-yl)benzamide] | 0 to 50 | 0 to 50 |  |  |
| O=C(CCc1ccccc1)Nc1ccn(Cc2ccncc2)n1 [Example 34, 3-Phenyl-N-(1-(pyridin-4-ylmethyl)-1H-pyrazol-3-yl)propanamide] | 0 to 50 | 0 to 50 |  |  |
| Cc1cnccc1C(C)n1ccc(NCC(F)(F)F)n1 (racemic) [Example 14, (rac)-1-(1-(3-Methylpyridin-4-yl)ethyl)-N-(2,2,2-trifluoroethyl)-1H-pyrazol-3-amine] |  |  | 1 to 10 |  |
| (S)-2-((1-(1-(Pyridin-4-yl)ethyl)-1H-pyrazol-3-yl)amino)acetonitrile and (R)-2-((1-(1-(Pyridin-4-yl)ethyl)-1H-pyrazol-3-yl)amino)acetonitrile [Example 7] |  |  | 1 to 10 |  |
| CC(c1ccncc1)n1ccc(CC(F)F)n1 (racemic) [Example 107, (rac)-4-{1-[3-(2,2-Difluoroethyl)-1H-pyrazol-1-yl]ethyl}pyridine] |  |  | 1 to 10 |  |
| (R)-4-(1-(1-(2,2-Difluoroethyl)-1H-pyrazol-3-yl)ethyl)pyridine and (S)-4-(1-(1-(2,2-Difluoroethyl)-1H-pyrazol-3-yl)ethyl)pyridine [Example 110] |  |  | 10 to 100 |  |
| O=C(Nc1ccn(Cc2ccncc2)n1)c1ccc2c(c1)CCC2 [Example 40, N-(1-(Pyridin-4-ylmethyl)-1H-pyrazol-3-yl)-2,3-dihydro-1H-indene-5-carboxamide] | 0 to 50 | 0 to 50 |  |  |
| O=C(Nc1ccn(Cc2ccncc2)n1)c1ccc(O)c(O)c1 [Example 73, 3,4-Dihydroxy-N-(1-(pyridin-4-ylmethyl)-1H-pyrazol-3-yl)benzamide] | 51 to 100 |  |  |  |
| FC(F)Cc1ccn(Cc2ccncc2)n1 [Example 102, 4-{[3-(2,2-Difluoroethyl)-1H-pyrazol-1-yl]methyl}pyridine] |  |  | 1 to 10 |  |
| O=C(Nc1ccn(Cc2ccncc2)n1)c1ccccc1Cl [Example 53, 2-Chloro-N-(1-(pyridin-4-ylmethyl)-1H-pyrazol-3-yl)benzamide] | 0 to 50 | 0 to 50 |  |  |
| O=C(Nc1ccn(Cc2ccncc2)n1)C1COc2ccccc2C1 (stereo not drawn) [Example 63, N-(1-(Pyridin-4-ylmethyl)-1H-pyrazol-3-yl)chromane-3-carboxamide] |  |  | 1 to 10 |  |
| O=C(Nc1ccn(Cc2ccncc2)n1)c1cccc(O)c1 [Example 46, 3-Hydroxy-N-(1-(pyridin-4-ylmethyl)-1H-pyrazol-3-yl)benzamide] | 0 to 50 | 0 to 50 |  |  |
| COc1ccc(S(=O)(=O)N(C)c2ccn(Cc3ccncc3)n2)cc1 [Example 75, 4-Methoxy-N-methyl-N-(1-(pyridin-4-ylmethyl)-1H-pyrazol-3-yl)benzenesulfonamide] |  |  |  | inhibition at 50 µM [3]: 0 to 50%; inhibition at 50 µM [4]: 0 to 50% |
| O=C(Nc1ccn(Cc2ccncc2)n1)c1ccccc1C(F)(F)F [Example 56, N-(1-(Pyridin-4-ylmethyl)-1H-pyrazol-3-yl)-2-(trifluoromethyl)benzamide] | 0 to 50 | 0 to 50 |  |  |
| c1cc(Cn2ccc(NCC3CC3)n2)ccn1 [Example 93, N-(Cyclopropylmethyl)-1-(pyridin-4-ylmethyl)-1H-pyrazol-3-amine] | 0 to 50 | 0 to 50 |  |  |
| CC(c1ccncc1)n1ccc(NC(=O)c2ccc3c(c2)OCO3)n1 (racemic) [Example 19, (rac)-N-(1-(1-(Pyridin-4-yl)ethyl)-1H-pyrazol-3-yl)benzo[d][1,3]dioxole-5-carboxamide] |  |  | 1 to 10 |  |
| COc1ccc(S(=O)(=O)Nc2ccn(Cc3ccncc3)n2)cc1 [Example 74, 4-Methoxy-N-(1-(pyridin-4-ylmethyl)-1H-pyrazol-3-yl)benzenesulfonamide] |  |  | 1 to 10 |  |
| CC(C)Cn1ccc(C(C)c2ccncc2)n1 (racemic) [Example 11, (rac)-4-(1-(1-Isobutyl-1H-pyrazol-3-yl)ethyl)pyridine] |  |  | 1 to 10 |  |
| Cc1cnccc1Cc1ccn(CC(F)(F)F)n1 [Example 23, 3-Methyl-4-((1-(2,2,2-trifluoroethyl)-1H-pyrazol-3-yl)methyl)pyridine] |  |  | 1 to 10 |  |

| Compound | inhibition at 50 µM [1] [%] | inhibition at 50 µM [2] [%] | IC50 [µM] | further results |
| --- | --- | --- | --- | --- |
| O=C(CCc1cccc(Cl)c1)Nc1ccn(Cc2ccncc2)n1 [Example 32, 3-(3-Chlorophenyl)-N-(1-(pyridin-4-ylmethyl)-1H-pyrazol-3-yl)propanamide] | 0 to 50 | 0 to 50 |  |  |
| (S)-4-(1-(1-(2,2,2-Trifluoroethyl)-1H-pyrazol-3-yl)ethyl)pyridine and (R)-4-(1-(1-(2,2,2-Trifluoroethyl)-1H-pyrazol-3-yl)ethyl)pyridine [Example 13b] |  |  |  | Avg NAD % inhibition at 50 μM (50 μM compound, NAD peak area): ** (51-100%); Avg NAM % inhibition at 50 μM (50 μM compound, NAM peak area): ** (51-100%) |
| (R)-4-(1-(1-(2,2-Difluoroethyl)-1H-pyrazol-3-yl)ethyl)pyridine and (S)-4-(1-(1-(2,2-Difluoroethyl)-1H-pyrazol-3-yl)ethyl)pyridine [Example 111] |  |  | 1 to 10 |  |
| O=C(Cc1ccccc1)Nc1ccn(Cc2ccncc2)n1 [Example 36, 2-Phenyl-N-(1-(pyridin-4-ylmethyl)-1H-pyrazol-3-yl)acetamide] |  |  |  | inhibition at 50 µM [3]: 0 to 50%; inhibition at 50 µM [4]: 0 to 50% |
| O=C(Nc1ccn(Cc2ccncc2)n1)c1ccc2c(c1)OCC2 [Example 38, N-(1-(Pyridin-4-ylmethyl)-1H-pyrazol-3-yl)-2,3-dihydrobenzofuran-6-carboxamide] |  |  | 1 to 10 |  |
| CC(c1ccncc1)n1ccc(Nc2nccs2)n1 (racemic) [Example 1, (rac)-N-(1-(1-(Pyridin-4-yl)ethyl)-1H-pyrazol-3-yl)thiazol-2-amine] |  |  | < 1 |  |
| FC(F)CNc1ccn(Cc2ccncc2)n1 [Example 3, N-(2,2-Difluoroethyl)-1-(pyridin-4-ylmethyl)-1H-pyrazol-3-amine] |  |  | 1 to 10 |  |
| N#CCNc1ccn(Cc2ccncc2)n1 [Example 17, 2-((1-(Pyridin-4-ylmethyl)-1H-pyrazol-3-yl)amino)acetonitrile] |  |  | 1 to 10 |  |
| (S)-2-(1-(1-(Pyridin-4-yl)ethyl)-1H-pyrazol-3-yl)acetonitrile and (R)-2-(1-(1-(Pyridin-4-yl)ethyl)-1H-pyrazol-3-yl)acetonitrile [Example 27] |  |  | 1 to 10 |  |
| FC(F)(F)CNc1ccn(Cc2ccncc2)n1 [Example 26, 1-(Pyridin-4-ylmethyl)-N-(2,2,2-trifluoroethyl)-1H-pyrazol-3-amine] | 0 to 50 | 0 to 50 | 10 to 100 |  |
| CC(c1ccncc1)c1ccn(CC(F)(F)F)n1 (racemic) [Example 24, (rac)-4-(1-(1-(2,2,2-Trifluoroethyl)-1H-pyrazol-3-yl)ethyl)pyridine] |  |  | < 1 |  |
| O=C(CCc1ccc(Cl)cc1)Nc1ccn(Cc2ccncc2)n1 [Example 106, 3-(4-Chlorophenyl)-N-{1-[(pyridin-4-yl)methyl]-1H-pyrazol-3-yl}propanamide] | 0 to 50 | 0 to 50 |  |  |
| O=S(=O)(Nc1ccn(Cc2ccncc2)n1)C(F)(F)F [Example 88, 1,1,1-Trifluoro-N-(1-(pyridin-4-ylmethyl)-1H-pyrazol-3-yl)methanesulfonamide] | 0 to 50 | 0 to 50 |  |  |
| Cc1cnccc1Cn1ccc(CC(F)(F)F)n1 [Example 109, 3-Methyl-4-{[3-(2,2,2-trifluoroethyl)-1H-pyrazol-1-yl]methyl}pyridine] |  |  | 1 to 10 |  |
| Cc1ccc(C(=O)Nc2ccn(Cc3ccncc3)n2)cc1 [Example 50, 4-Methyl-N-(1-(pyridin-4-ylmethyl)-1H-pyrazol-3-yl)benzamide] | 0 to 50 | 0 to 50 |  |  |
| FC(F)(F)C(CNc1ccn(Cc2ccncc2)n1)C(F)(F)F [Example 16, 1-(Pyridin-4-ylmethyl)-N-(3,3,3-trifluoro-2-(trifluoromethyl)propyl)-1H-pyrazol-3-amine] |  |  | 1 to 10 |  |
| O=C(CCc1cc(Cl)cc(Cl)c1)Nc1ccn(Cc2ccncc2)n1 [Example 35, 3-(3,5-Dichlorophenyl)-N-(1-(pyridin-4-ylmethyl)-1H-pyrazol-3-yl)propanamide] | 0 to 50 | 0 to 50 |  |  |
| (S)-4-(1-(1-(2,2,2-Trifluoroethyl)-1H-pyrazol-3-yl)ethyl)pyridine and (R)-4-(1-(1-(2,2,2-Trifluoroethyl)-1H-pyrazol-3-yl)ethyl)pyridine [Example 13a] |  |  | < 1 |  |
